Measurements published in ChEMBL document CHEMBL1155630, “New metabolites from the West Indian sea feather Pseudopterogorgia bipinnata” (J Nat Prod, 2000).
Active and inactive are the calls of the source. No cut-off for these calls is given here.

Tested on: Mycobacterium tuberculosis
Test: Antitubercular activity against Mycobacterium tuberculosis H37Rv at 6.25 ug/mL
Type: functional, organism-based

Compound | Activity
C=C(C)[C@H](CCC1=C[C@H](CC(C)=O)OC1=O)[C@H](O)c1oc(C(C)=O)cc1C | inactive
C=C1CC(=O)/C=C(/C)C[C@@H]2OC(=O)[C@]3(O[C@@H]23)[C@H]2C[C@@H]([C@@]3(C)CO3)[C@H](O)[C@]1(O)O2 | inactive
